How the values were obtained:
MES-SA = test: Resistant factor, ratio of IC50 for doxorubicin-resistant human MES-SA/Dx5 cells to IC50 for doxorubicin-sensitive human MES-SA cells; type: functional
[1] = Cytotoxicity against human MES-SA cells assessed as inhibition of cell proliferation after 72 hrs by MTT assay; type: functional, cell-based
HCT-116 = test: Cytotoxicity against human HCT116 cells assessed as inhibition of cell proliferation after 72 hrs by MTT assay; type: functional, cell-based; settings: HCT-116, 72 h
[2] = Cytotoxicity against human MES-SA/Dx5 cells assessed as inhibition of cell proliferation after 72 hrs by MTT assay; type: functional, cell-based; settings: MES-SA/Dx5, 72 h

| Structure (SMILES) | Ratio IC50 (MES-SA) | IC50 [1] | IC50 (HCT-116) | IC50 [2] |
| --- | --- | --- | --- | --- |
| O=[N+]([O-])c1ccc2c3c(n(CCN4CCCC4)cc13)-c1ccccc1S2(=O)=O | 0.63 | 2.3 µM | 7.04 µM | 1.45 µM |
| CCN(CC)CCn1cc2c([N+](=O)[O-])ccc3c2c1-c1ccccc1S3(=O)=O | 0.66 | 3.98 µM | 6.02 µM | 2.61 µM |
| CN(C)CCn1cc2c([N+](=O)[O-])ccc3c2c1-c1ccccc1S3(=O)=O | 1.47 | 3.52 µM | 5.42 µM | 5.18 µM |
| CCN(CC)CCNc1ccc2c3c(n(CCN(CC)CC)cc13)-c1ccccc1S2(=O)=O |  | 68.2 µM | 60.4 µM | > 100 µM |
| O=C1c2c(O)ccc(O)c2C(=O)c2c(NCCNCCO)ccc(NCCNCCO)c21 [MITOXANTRONE] | 6.67 | 0.012 µM | 0.022 µM | 0.08 µM |
| CCN(CC)CCn1cc2c([N+](=O)[O-])ccc3c2c1-c1ccccc1S3 | 2.63 | 1.93 µM | 2.14 µM | 5.08 µM |
| CN(C)CCn1cc2c([N+](=O)[O-])ccc3c2c1-c1ccccc1S3 | 0.38 | 4.44 µM | 2.1 µM | 1.7 µM |
| O=[N+]([O-])c1ccc2c3c(n(CCN4CCCC4)cc13)-c1ccccc1S2 | 1.25 | 1.72 µM | 1.15 µM | 2.15 µM |
| COc1cccc2c1C(=O)c1c(O)c3c(c(O)c1C2=O)C[C@@](O)(C(=O)CO)C[C@@H]3O[C@H]1C[C@H](N)[C@H](O)[C@H](C)O1 [DOXORUBICIN] | 79.93 | 0.03 µM | 0.16 µM | 2.4 µM |
| O=[N+]([O-])c1ccc2c3c(n(CCN4CCCCC4)cc13)-c1ccccc1S2 | 0.55 | 16.7 µM | 8.09 µM | 9.16 µM |
| O=[N+]([O-])c1ccc2c3c(n(CCN4CCCCC4)cc13)-c1ccccc1S2(=O)=O | 0.64 | 3.98 µM | 5.47 µM | 2.55 µM |
